The assay is described as follows: Affinity against Sigma opioid receptor type 1 using [3H](+)-pentazocine in guinea pig brain membranes.

By Ki is commonly meant a dissociation constant, usually derived from enzyme kinetics or from competition with a known ligand. A lower Ki goes with tighter binding. In turn, `C[C@@H]1[C@@H]2Cc3ccc(O)cc3[C@@]1(C)CCN2Cc1ccccc1` had an inhibition constant (Ki) of 0.67 nM.

Values taken from ChEMBL document CHEMBL1132466, “Asymmetric synthesis of 9-alkyl-2-benzyl-6,7-benzomorphans: characterization as novel sigma receptor ligands” (J Med Chem, 1999).
